The results in this text go back to US5229381A, “Substituted azetidinones as anti-inflammatory and antidegenerative agents” (Merck & Co., Inc., priority 1991, dated 1993).

pKi: −log10 of the molar value.

The target of one test is T1, human polymorphonuclear leukocyte elastase (Homo sapiens, UniProt P08246).
T1 construct: Crude extract of human polymorphonuclear leukocytes (PMN) containing elastase activity; endogenous in cells; host or cells: human polymorphonuclear leukocytes (crude extract)
T1 sequence (P08246 30-247 limits assumed): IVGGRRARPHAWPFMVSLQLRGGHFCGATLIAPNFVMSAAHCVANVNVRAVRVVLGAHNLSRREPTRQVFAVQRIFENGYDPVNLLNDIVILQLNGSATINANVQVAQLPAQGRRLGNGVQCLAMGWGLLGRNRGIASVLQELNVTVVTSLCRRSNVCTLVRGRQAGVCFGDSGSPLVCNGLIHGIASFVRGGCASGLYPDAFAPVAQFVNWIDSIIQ
The test can be described thus: Inhibition of human polymorphonuclear leukocyte (granulocyte) elastase via hydrolysis of Boc-AAPAN or Boc-AAPVN. The test is classed as biochemical. Conditions: Table I; 2 min after time zero; crude PMN extract, pH 7.5.
As to `CCC1C(=O)N(C(C)=O)C1OC(C)=O` (stereo not drawn) [Table I: H; C2 H5; OCOCH3; COCH3], the “ID50, effective dosage for 50% inhibition of the enzyme activity two minutes after time zero” value was 100 µg/mL.
Same read-out and setting: for `CCC1C(=O)NC1OC(C)=O` (stereo not drawn) [Table I: H; C2 H5; OCOCH3; H] the value was 15000 µg/mL.
Consider `COC1C(=O)N(C(C)=O)C1C(=O)OCc1ccccc1` (stereo not drawn) [Table I: H; CH3 O; COOCH2 C6 H5; COCH3], for which the “ID50, effective dosage for 50% inhibition of the enzyme activity two minutes after time zero” value came to 2000 µg/mL.
Still for that read-out and setting: with `CC(=O)OC1CC(=O)N1C(C)=O` (stereo not drawn) [Table I: H; H; OCOCH3; COCH3] the figure was 3000 µg/mL; with `CC(=O)N1C(=O)CC1[S+](C)[O-]` (stereo not drawn) [Table I: H; H; SOCH3; COCH3, 1-acetyl-4-methylsulfinylazetidine-2-one], 10000 µg/mL.
As for `CCCC1C(=O)N(C(C)=O)C1OC(C)=O` (stereo not drawn) [Table I: H; n-propyl; OCOCH3; COCH3, 1-acetyl-4-acetoxy-3-n-propylazetidin-2-one], the “ID50, effective dosage for 50% inhibition of the enzyme activity two minutes after time zero” value worked out at 10 µg/mL.

Still in this test, the particulars now being: Table I; read-out: Ki, concentration of the inhibitor giving 50% of the control enzyme activity.
Regarding `CCC1C(=O)N(C(=O)c2ccccc2)C1C(C)=O` (stereo not drawn) [Table I: H; C2 H5 (trans); COCH3; COPh], the pKi is 6.47.
For the compound `CCC1C(=O)N(C(C)=O)C1OC(C)=O` (stereo not drawn) [Table I: H; C2 H5; OCOCH3; COCH3], the pKi is 6.44.

The test is the same for the next values; noted with them: Table IV, (per mole per second).
`CCCC1(CCC)C(=O)N(C(=O)NC(C)c2ccccc2)C1Oc1ccc(C(=O)O)cc1` (single isomer, unassigned) [Table IV: C3 H7; C3 H7; O-(4-COOHPh); drawing 47 (higher Rf isomer)]: the “kobs/I, second order rate constant of inactivation of the enzyme” value worked out at 4324 M⁻¹ s⁻¹.
On the same count and under the same terms, with `CCCC1(CCC)C(=O)N(C(=O)NC(C)c2ccccc2)C1Oc1ccc(C(=O)O)cc1` (single isomer, unassigned) [Table IV: C3 H7; C3 H7; O-(4-COOHPh); drawing 47 (lower Rf isomer)] the figure was 1446 M⁻¹ s⁻¹.

The same test, now with this note: pH 7.5, Table II, (per mole per second); read-out: kobs/I, second order rate constant of inactivation of the enzyme.
Regarding `CC[C@@]1(C)C(=O)N(C(=O)NCc2ccccc2)[C@H]1Oc1ccc(C(=O)O)cc1` [(3R,4S)-1-(benzylaminocarbonyl)-3-ethyl-3-methyl-4-(4-carboxy)phenoxyazetidin-2-one], the kinact/KI came out at 2000 M⁻¹ s⁻¹.
Still for that read-out and setting: with `CCC1(CC)C(=O)N(C(=O)NCc2ccccc2)C1Oc1ccc(CC(N)C(=O)O)cc1` (stereo not drawn) [Table II: C2 H5; C2 H5; drawing 36; CH2 Ph] the figure was 2540 M⁻¹ s⁻¹.
For `CCC1(CC)C(=O)N(C(=O)NCc2ccccc2)C1Oc1ccc(C(=O)N2CCC[C@H]2C(=O)O)cc1` (stereo partly drawn) [Table II: C2 H5; C2 H5; drawing 37; CH2 Ph], the kinact/KI came to 2000 M⁻¹ s⁻¹.
As for `CCC1(CC)C(=O)N(C(=O)NCc2ccccc2)C1Oc1ccc(C(=O)NS(=O)(=O)c2ccc(Cl)cc2)cc1` (stereo not drawn) [Table II: C2 H5; C2 H5; drawing 38; CH2 Ph], the kinact/KI came out at 6300 M⁻¹ s⁻¹.
Turning to `CCC1(CC)C(=O)N(C(=O)NCc2ccccc2)C1Oc1ccc([C@H](NC(C)=O)C(=O)O)cc1` (stereo partly drawn) [Table II: C2 H5; C2 H5; drawing 39; CH2 Ph], the kinact/KI amounted to 2420 M⁻¹ s⁻¹.
Still for that read-out and setting: for `CCC1C(=O)N(C(=O)NCc2ccccc2)C1Oc1ccc(C(=O)O)cc1` (stereo not drawn) [Table II: C2 H5; H; O-(4-COOHPh); CH2 Ph] the value was 4000 M⁻¹ s⁻¹; for `CCC1C(=O)N(C(=O)NCc2ccccc2)C1c1ccc(C(=O)O)cc1` (stereo not drawn) [Table II: C2 H5; H; Ph-4-COOH; CH2 Ph], 900 M⁻¹ s⁻¹; for `CCCC1C(=O)N(C(=O)NCc2ccccc2)C1Oc1ccc(C(=O)O)cc1` (stereo not drawn) [Table II: C3 H7; H; O-(4-COOHPh); CH2 Ph], 5000 M⁻¹ s⁻¹.
Take `COC1C(=O)N(C(=O)NCc2ccc3ccccc3c2)C1c1ccc(C(=O)O)cc1` (stereo not drawn) [Table II: H; OMe; Ph-4-COOH; CH2-2-Naph]: the kinact/KI stood at 1340 M⁻¹ s⁻¹.

Staying with this test, now noted: pH 7.5, Table III, (per mole per second); read-out: kobs/I, second order rate constant of inactivation of the enzyme.
With `CCC1(CC)C(=O)N(C(=O)NCc2ccccc2)C1n1cnc2ccccc21` (stereo not drawn) [Table III: 1-benzimidazolyl; CH2 Ph], the kinact/KI was 69 M⁻¹ s⁻¹.
For the compound `CCC1(CC)C(=O)N(C(=O)NCc2ccc(-c3ccccc3)cc2)C1n1ccnc1` (stereo not drawn) [Table III: 1-imidazole; CH2 Ph-4-Ph], the kinact/KI worked out at 461 M⁻¹ s⁻¹.
On to `CCC1(CC)C(=O)N(C(=O)NCc2ccccc2)C1n1cnnn1` (stereo not drawn) [Table III: 1-tetrazolyl; CH2 Ph], for which the kinact/KI worked out at 948 M⁻¹ s⁻¹.
`CCC1(CC)C(=O)N(C(=O)NCc2ccc(-c3ccccc3)cc2)C1n1cncn1` (stereo not drawn) [Table III: 1-triazolyl; CH2 Ph-4-Ph]: the kinact/KI turned out to be 2140 M⁻¹ s⁻¹.
For `CCC1(CC)C(=O)N(C(=O)NCc2ccccc2)C1n1c(=O)cc[nH]c1=O` (stereo not drawn) [Table III: C00042; CH2 Ph], the kinact/KI turned out to be 351 M⁻¹ s⁻¹.
As to `CCC1(CC)C(=O)N(C(=O)NCc2ccccc2)C1NC(=O)OC` (stereo not drawn) [Table III: NHCOOMe; CH2 Ph], the kinact/KI is 496 M⁻¹ s⁻¹.
For the compound `CCC1(CC)C(=O)N(C(=O)NCc2ccccc2)C1Oc1ccccc1CCCN(C)C` (stereo not drawn) [Table III: O-(2-(CH2)3 NMe2Ph); CH2 Ph], the kinact/KI was 629 M⁻¹ s⁻¹.
Turning to `CCC1(CC)C(=O)N(C(=O)NCc2ccccc2)C1Oc1ccc(C(NC(C)=O)C(=O)O)cc1` (stereo not drawn) [Table III: O-(4-CH(COOH)NHAcPh); CH2 Ph], the kinact/KI was determined as 1680 M⁻¹ s⁻¹.
For `CCC1(CC)C(=O)N(C(=O)NCc2ccccc2O)C1Oc1ccc(C(=O)O)cc1` (stereo not drawn) [Table III: O-(4-COOHPh); CH2 Ph(2-OH)], the kinact/KI is 1460 M⁻¹ s⁻¹.
With `CCC1(CC)C(=O)N(C(=O)NCc2cccc(C)c2)C1Oc1ccc(C(=O)O)cc1` (stereo not drawn) [Table III: O-(4-COOHPh); CH2 Ph(3-CH3)], the kinact/KI worked out at 6930 M⁻¹ s⁻¹.
As to `CCC1(CC)C(=O)N(C(=O)NCc2ccc(C(C)=O)cc2)C1Oc1ccc(C(=O)O)cc1` (stereo not drawn) [Table III: O-(4-COOHPh); CH2 Ph(4-COMe)], the kinact/KI was 5920 M⁻¹ s⁻¹.
For the compound `CCC1(CC)C(=O)N(C(=O)NCc2ccc(C(C)C)cc2)C1Oc1ccc(C(=O)O)cc1` (stereo not drawn) [Table III: O-(4-COOHPh); CH2 Ph(4-i-Pr)], the kinact/KI is 18800 M⁻¹ s⁻¹.
In the case of `CCC1(CC)C(=O)N(C(=O)NCc2ccc(C(C)(C)C)cc2)C1Oc1ccc(C(=O)O)cc1` (stereo not drawn) [Table III: O-(4-COOHPh); CH2 Ph(4-tBu)], the kinact/KI was determined as 21800 M⁻¹ s⁻¹.
On to `CCC1(CC)C(=O)N(C(=O)NCC2CCC3CCCCC3C2)C1Oc1ccc(C(=O)O)cc1` (stereo not drawn) [Table III: O-(4-COOHPh); drawing 41], for which the kinact/KI stood at 4160 M⁻¹ s⁻¹.
Take `CCC1(CC)C(=O)N(C(=O)NCc2ccc(C(=O)N3CCOCC3)cc2)C1Oc1ccc(C(=O)O)cc1` (stereo not drawn) [Table III: O-(4-COOHPh); drawing 43]: the kinact/KI is 2040 M⁻¹ s⁻¹.
For `C=CCOC1N(C(=O)NCc2ccc(-c3ccccc3)cc2)C(=O)C1(CC)CC` (stereo not drawn) [Table III: O-(allyl); CH2 Ph-4-Ph], the kinact/KI stood at 12500 M⁻¹ s⁻¹.
For the compound `CCC1(CC)C(=O)N(C(=O)NCc2ccccc2)C1OCC(O)CO` (stereo not drawn) [Table III: O-glyceryl; CH2 Ph], the kinact/KI came to 818 M⁻¹ s⁻¹.
On to `CCC1(CC)C(=O)N(C(=O)NCc2ccc(-c3ccccc3)cc2)C1OCC(N)=O` (stereo not drawn) [Table III: OCH2 CONH2; CH2Ph-4-Ph], for which the kinact/KI was found to be 51800 M⁻¹ s⁻¹.
On to `CCC1(CC)C(=O)N(C(=O)NCc2ccc(-c3ccccc3)cc2)C1OCC(=O)O` (stereo not drawn) [Table III: OCH2 COOH; CH2 Ph-4-Ph], for which the kinact/KI is 2900 M⁻¹ s⁻¹.
With `CCC(NC(=O)N1C(=O)C(CC)(CC)C1OCC(N)=O)c1ccccc1` (stereo not drawn) [Table III: OCH2CONH2; CH(Et)Ph], the kinact/KI turned out to be 103000 M⁻¹ s⁻¹.
Same read-out and setting: for `CCC(NC(=O)N1C(=O)C(CC)(CC)C1OCC(=O)O)c1ccccc1` (stereo not drawn) [Table III: OCH2COOH; CH(Et)Ph] the value was 5710 M⁻¹ s⁻¹; for `CCC1(CC)C(=O)N(C(=O)NCc2ccccc2)C1n1ccccc1=O` (stereo not drawn) [Table III: [2H-1-pyridonyl]; CH2 Ph], 357 M⁻¹ s⁻¹.

The same test, now with this note: pH 7.5, Table IV, (per mole per second); read-out: kobs/I, second order rate constant of inactivation of the enzyme.
Turning to `CCC1C(=O)N(C(=O)N2CCc3ccccc3C2)C1Oc1ccc(C(=O)O)cc1` (stereo not drawn) [Table IV: C2 H5; H; O-(4-COOHPh); drawing 46], the kinact/KI was determined as 10100 M⁻¹ s⁻¹.

The test is the same for the next values; noted with them: pH 7.5, Table V, (per mole per second); read-out: kobs/I, second order rate constant of inactivation of the enzyme.
`CC[C@@H](NC(=O)N1C(=O)C(CC)(CC)[C@@H]1Oc1ccc(CC(=O)O)cc1)c1ccccc1` [Table V: 4-CH2 COOH; Et; H]: the kinact/KI was 140000 M⁻¹ s⁻¹.
Turning to `CCC[C@@H](NC(=O)N1C(=O)C(CC)(CC)[C@@H]1Oc1ccc(CC(=O)O)cc1)c1ccccc1` [Table V: 4-CH2 COOH; nPr; H], the kinact/KI came to 227000 M⁻¹ s⁻¹.
As to `CCC1(CC)C(=O)N(C(=O)N[C@H](COC)c2ccccc2)[C@H]1Oc1ccc(C(=O)O)cc1` [Table V: 4-COOH; CH2 OMe; H], the kinact/KI stood at 6090 M⁻¹ s⁻¹.
Turning to `CC[C@@H](NC(=O)N1C(=O)C(CC)(CC)[C@@H]1Oc1ccc(C(=O)O)cc1)c1ccccc1` [Table V: 4-COOH; Et; H], the kinact/KI was 92000 M⁻¹ s⁻¹.
The same measure, in the same setting: for `CCC1(CC)C(=O)N(C(=O)N[C@H](C)c2ccc(C)cc2)[C@H]1Oc1ccc(C(=O)O)cc1` [Table V: 4-COOH; Me; 4-Me] the value was 47000 M⁻¹ s⁻¹.

Staying with this test, now noted: pH 7.5, Table VI, (per mole per second); read-out: kobs/I, second order rate constant of inactivation of the enzyme.
For `C=CC[C@@H](NC(=O)N1C(=O)C(CC)(CC)[C@@H]1Oc1ccc(CC(=O)O)cc1)c1ccc2c(c1)OCO2` [(4S)-3,3-diethyl-1-[(R)-α-allyl-(3,4-methylenedioxy)-benzylaminocarbonyl]-4-[(4-carboxymethyl)phenoxy]azetidin-2-one], the kinact/KI stood at 605000 M⁻¹ s⁻¹.
In the case of `CCC[C@@H](NC(=O)N1C(=O)C(CC)(CC)[C@@H]1Oc1ccc(CC(=O)O)cc1)c1ccc2c(c1)OCO2` [(4S)-3,3-diethyl-1-[(R)-α-n-propyl-(3,4-methylenedioxy)-benzylaminocarbonyl]-4[(4-carboxymethyl)-phenoxy]azetidin-2-one], the kinact/KI was determined as 867000 M⁻¹ s⁻¹.

Still in this test, the particulars now being: pH 7.5, read-out: kobs/I, second order rate constant of inactivation of the enzyme.
As for `CCC1C(=O)N(C(=O)c2ccccc2)C1C(C)=O` (stereo not drawn) [Table I: H; C2 H5 (trans); COCH3; COPh], the kinact/KI stood at 76600 M⁻¹ s⁻¹.
As for `CCC1C(=O)N(C(C)=O)C1OC(C)=O` (stereo not drawn) [Table I: H; C2 H5; OCOCH3; COCH3], the kinact/KI was 15100 M⁻¹ s⁻¹.
